{"source": "patent EP0851756B1", "about": "“USE OF ONDANSETRON IN THE MANUFACTURE OF A MEDICAMENT FOR THE TREATMENT OF TREMOR” (GLAXO GROUP LIMITED, priority 1995, dated 1997)", "format_in_all_cases": "in vivo, patients", "key": {"[1]": {"tested_on": "cerebellar tremor caused by MS, cerebellar degeneration or drug toxicity", "assay": "Placebo-controlled, double blind, crossover study: manual co-ordination (spiral copying, word copying or line drawing) judged by blind observers", "design": "key to Spiral Writing drug: 0 = none; + = a little; ++ = moderate; +++ = a lot of improvement", "experimental": "(§1) A placebo-controlled, double blind, crossover study of intravenous ondansetron in twenty patients with cerebellar tremor caused by MS, cerebellar degeneration or drug toxicity was conducted. Most had tremor based upon cerebellar involvement from MS; three had familial degenerative disorders involving the cerebellum and one had acquired lithium toxicity. The clinical information and prior treatment of the patients is outlined below in Table 1. Patients were randomly assigned to receive intravenous ondansetron (8mg or a placebo, consisting of normal saline). The drug was given by intravenous bolus injection. Patients were given the alternate agent at a later interval. The principal outcome measure was the change in manual co-ordination tasks as assessed by spiral copying, word copying or line drawing and the time to complete a nine-hole peg test. Only 12 patients had sufficient co-ordination to complete the nine-hole peg test. The clinical outcome was measured at baseline and one hour following the infusion. Figures 1 (a), (b) and (c) represent an attempt to copy a spiral by the first mentioned patient in Table 1. Figure 1(a) represents an attempt prior to treatment with ondansetron; figure 1(b) an attempt after receiving placebo; and figure 1 (c) an attempt after receiving ondansetron."}, "[2]": {"tested_on": "cerebellar tremor caused by MS, cerebellar degeneration or drug toxicity", "assay": "Placebo-controlled, double blind, crossover study: time to complete a nine-hole peg test", "experimental": "as §1, with “infusion.” for “infusion. Figures 1 (a), (b) and (c) represent an attempt to copy a spiral by the first mentioned patient in Table 1. Figure 1(a) represents an attempt prior to treatment with ondansetron; figure 1(b) an attempt after receiving placebo; and figure 1 (c) an attempt after receiving ondansetron.”"}, "[3]": {"tested_on": "cerebellar tremor caused by MS, cerebellar degeneration or drug toxicity", "assay": "Placebo-controlled, double blind, crossover study: subjective response and patient identification of treatment assignment", "design": "key to Subjective drug response: 0 = none; + = a little; ++ = moderate; +++ = a lot of improvement", "experimental": "A placebo-controlled, double blind, crossover study of intravenous ondansetron in twenty patients with cerebellar tremor caused by MS, cerebellar degeneration or drug toxicity was conducted. Most had tremor based upon cerebellar involvement from MS; three had familial degenerative disorders involving the cerebellum and one had acquired lithium toxicity. The clinical information and prior treatment of the patients is outlined below in Table 1. Patients were randomly assigned to receive intravenous ondansetron (8mg or a placebo, consisting of normal saline). The drug was given by intravenous bolus injection. Patients were given the alternate agent at a later interval. The clinical outcome was measured at baseline and one hour following the infusion. Patient identification of treatment assignment was correct in 12/20 instances and this was based upon efficacy. None believed placebo to be better (p=0.014; Fisher exact ratio)."}, "[4]": {"tested_on": "cerebellar tremor caused by MS, cerebellar degeneration or drug toxicity", "assay": "Clinical observations: tolerability, long-term use, withdrawal, oral dosing"}, "[5]": {"details": "individual patients, 8mg intravenous bolus, baseline vs one hour following the infusion"}}, "note": "“And” between values parts separate entries of the source, which are not always exact repeats. Equal entries are not always repeated.", "data": [{"smiles": "Cc1nccn1CC1CCc2c(c3ccccc3n2C)C1=O", "note": "(stereo not drawn) [ondansetron, 1,2,3,9-tetrahydro-9-methyl-3-[(2-methyl-1H-imidazol-1-yl)methyl]-4H-carbazol-4-one]", "values": [{"measurement": "favourable clinical response, MS subgroup", "setting": "[1]; MS subgroup of 16 patients, number with a response, p=0.001", "result": 13}, {"measurement": "favourable clinical response identified by a panel of three blind observers", "setting": "[1]; entire study group, 8mg intravenous, p=0.009 vs placebo (Fisher exact ratio)", "result": "13 of the 20"}, {"measurement": "Spiral Writing drug", "setting": "[1]; [5]", "result": "+ (6×) and +++ (4×) and ++ (4×) and 0 (5×)"}, {"measurement": "Spiral Writing drug, Ratio", "setting": "[1]; patients with improvement / patients assessed, 8mg intravenous, placebo 1/19", "result": "13/19"}, {"measurement": "9 hole peg-drug", "setting": "[2]; individual patients, 8mg intravenous bolus, one hour following the infusion", "result": "110 secs and 63 secs and 155 secs and 55 secs (2×) and 48 secs and 180 secs and 85 secs and 57 secs and 45 secs and 70 secs and 29 secs"}, {"measurement": "9 hole peg-drug (secs), Mean", "setting": "[2]; mean of 12 patients, 8mg intravenous, placebo 87±12", "result": "79 ± 13", "unit": "s"}, {"measurement": "mean time for the completion of the nine hole peg test", "setting": "[2]; ± standard error, 8mg intravenous, placebo 87 ± 12, p=0.04 (Mann Whitney, one tailed, paired)", "result": "79 ± 13", "unit": "s"}, {"measurement": "Patient identification of treatment assignment correct", "setting": "[3]; based upon efficacy, none believed placebo to be better (p=0.014; Fisher exact ratio)", "result": "12/20"}, {"measurement": "Subjective drug response", "setting": "[3]; [5]", "result": "++ (5×) and 0 (8×) and + (3×) and +++ (3×) and + (dysarthria)"}, {"measurement": "speech after treatment", "setting": "[3]; one patient with cerebellar degeneration too disabled to complete the tasks (Cd2, Table 1)", "result": "improved speech"}, {"measurement": "Subjective drug response, Ratio", "setting": "[3]; patients with improvement / patients assessed, 8mg intravenous, placebo 0/18", "result": "12/20"}, {"measurement": "sustaining of the effect in the long term", "setting": "[4]; long term use", "result": "could be sustained in the long term"}, {"measurement": "reproduction of the effect of intravenous ondansetron by oral dosing", "setting": "[4]; oral ondansetron (8-16mg)", "result": "could be reproduced"}, {"measurement": "tolerability", "setting": "[4]; patients with cerebellar tremor", "result": "well tolerated"}, {"measurement": "tremor after withdrawal of the medication", "setting": "[4]; withdrawal", "result": "tremor returning to pre-study levels"}]}]}
